Experimental findings from the supplement of paper PMC5412046 are described below.

In this experiment the test system is SB.msgc-1. Description: AC50 for growth inhibition (viability) (log10 M); higher = less potent. As to conditions: SB.msgc-1 (sporadic gastric cancer). In short, it runs like this:
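Log half-maximal activity concentration reflects viability of patient-derived gastric cancer cells, hereditary or sporadic, normalised to DMSO and fitted with four parameters, with only high-quality curve classes retained. Wells of a 1536 plate held 500 cells and received compound by pintool at 11 threefold dilutions from a final 46 μM. Luminescence from CellTiter-Glo was read on a ViewLux at 48 h.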
`CNC(=O)c1ccccc1Sc1ccc2c(/C=C/c3ccccn3)n[nH]c2c1` [Axitinib]: the “AC50 for growth inhibition (log10 M)” value is -4.68.
For the compound `O=C(Nc1cc(Cl)cc2c1[nH]c1cnccc12)c1cccnc1` [PS-1145], the “AC50 for growth inhibition (log10 M)” value was -4.73.
Under `C=CC[C@@H]1/C=C(\C)C[C@H](C)C[C@H](OC)[C@H]2O[C@@](O)(C(=O)C(=O)N3CCCC[C@H]3C(=O)O[C@H](/C(C)=C/[C@@H]3CC[C@@H](O)[C@H](OC)C3)[C@H](C)[C@@H](O)CC1=O)[C@H](C)C[C@@H]2OC` [FK-506] stands -5.18; under `NC(=O)c1nnn(Cc2cc(Cl)c(C(=O)c3ccc(Cl)cc3)c(Cl)c2)c1N` [Carboxyamidotriazole], -5.03; under `OCCCNc1cc(-c2ccnc(Nc3cccc(Cl)c3)n2)ccn1`, -6.68.
On to `C/C=C(/C)C(=O)O[C@H]1C(C)=C[C@]23C(=O)[C@@H](C=C(CO)[C@@H](O)[C@]12O)[C@H]1[C@@H](C[C@H]3C)C1(C)C` [Ingenol mebutate], for which the “AC50 for growth inhibition (log10 M)” value was -7.18.
Under `O=C(O)[C@@H](c1ccc(OCc2ccc3ccccc3n2)cc1)C1CCCC1` [Veliflapon] stands -5.18.
Take `COCCOc1ccc2c(c1)ncn2-c1ccc2cccc(N3CCC(N)CC3)c2n1`: the “AC50 for growth inhibition (log10 M)” value was -5.23.
The figure for `CCc1cc(/C(C)=N/OCc2ccc(C3CCCCC3)c(C(F)(F)F)c2)ccc1CN1CC(C(=O)O)C1` [BAF-312] is -4.73; for `COC(=O)Nc1nc2cc(C(=O)c3ccccc3)ccc2[nH]1` [Mebendazole] it is -5.48.
Under `CC(NC1=CC=CC=C1)C\2=C\C(=C/N3C(=O)\C=C(/N=C23)N4CCOCC4)C` (stereo not given) [TGX-221] stands -5.58; under `CC1COC2(CCN(CC2)C/3=N/C(=O)C4=CC(=CC(=C4S3)[N+]([O-])=O)C(F)(F)F)O1` (stereo not given), -4.78; under `Cn1cnc([N+](=O)[O-])c1Sc1ncnc2nc[nH]c12` [Azathioprine], -5.43.
Under `CCn1c(=O)c2c(nc(/C=C/c3ccc(OC)c(OC)c3)n2C)n(CC)c1=O` [Istradefylline] stands -4.73; under `OC1=CC2=C(C=C1)C(=O)\C(=C(O2)\C3=CC(=C(O)C=C3)O)O` [Fisetin], -4.63.
For `CC/1=C(/C(CC(=O)N1)C2=CC=C(C=C2)C(F)(F)F)C(=O)NC3=C(F)C=C4[NH]N=CC4=C3` (stereo not given), the “AC50 for growth inhibition (log10 M)” value is -5.03.
Under `NCC1CCC(C(=O)O)CC1` (stereo not given) [Tranexamic acid] stands -5.18.
The figure for `O=C1\C=C/C[C@@H]2[C@H]3CCCN4CCC[C@@H](CN12)[C@@H]34` [Sophocarpine] is -4.78; for `O=C(Nc1ccccc1)Nc1ccc(-c2ccc(C(=O)[C@@H]3CCC[C@H]3C(=O)O)cc2)cc1` it is -4.63.
The figure for `COc1cc2ncnc(Nc3cc(Br)c(O)c(Br)c3)c2cc1OC` [WHI-P97] is -7.78; for `C[C@H](c1ccc(F)cc1CCCC(=O)O)N(c1cc(F)ccc1F)[S+](=O)([O-])c1ccc(Cl)cc1` it is -4.78.
Take `COc1cc(Nc2c(C#N)cnc3cc(OCCCN4CCN(C)CC4)c(OC)cc23)c(Cl)cc1Cl` [Bosutinib]: the “AC50 for growth inhibition (log10 M)” value is -5.58.
The figure for `O=C1NC(=O)/C(=C\c2ccc(-c3ccc(F)cc3)o2)S1` is -4.78; for `O=C(O)/C=C/c1ccc(O)c(O)c1` [Caffeic acid] it is -4.88.
The figure for `O=C(N[C@@H](c1ccccc1)[C@@H]1CCCCN1)c1cccc(C(F)(F)F)c1Cl` is -5.88.
